Test results from article PMC10793205, “Differential transmetallation of complexes of the anti-cancer thiosemicarbazone, Dp4e4mT: effects on anti-proliferative efficacy, redox activity, oxy-myoglobin and oxy-hemoglobin oxidation” (Chemical Science, 2023).
Read-outs that look alike come from different tables or passages of the source.

Columns and labels:
[1] = tested on: AsPC-1 cells; assay: MTT cellular proliferation assay, AsPC-1 pancreatic adenocarcinoma cells; assay type: cell-based, human; conditions: for Therapeutic index AsPC-1: IC50 of MRC-5 cells/IC50 of AsPC-1 cells, 72 h/37 °C; for IC50: 37 °C, MTT, mean ± SD (3 experiments)
Experimental: The anti-proliferative activity of Dp4e4mT relative to its complexes with Fe(III), Co(III), Ni(II), Cu(II), Zn(II), Ga(III), and Pd(II) was examined over incubation periods of 24-, 48-, and 72 h/37 °C (Table 2). These studies were performed using human SK-N-MC neuroepithelioma and AsPC-1 pancreatic adenocarcinoma cells that we have previously examined to assay other ligands.[15,28,43] […]
(§1) All cell lines were procured from the American Type Culture Collection (ATCC; Manassas, VA). The SK-N-MC neuroepithelioma cell line and the mortal MRC-5 fibroblasts were cultured in minimum essential medium (Sigma-Aldrich), while the AsPC-1 cell line was cultured in Roswell Park Memorial Institute 1640 medium (Thermo Fisher Scientific, MA, USA). Both media were supplemented with 10% fetal calf serum, non-essential amino acids (1 mM), sodium pyruvate (1 mM), L-glutamine (2 mM), penicillin (100 U/mL), streptomycin (100 U/mL), and Fungizone (0.5 µg/mL). Cells were maintained at 37 °C in an incubator under a humidified atmosphere with 5% CO 2, following established protocols. 11 Cellular Proliferation Assay
(§2) Cellular proliferation was evaluated through the established 3-(4,5-dimethylthiazol-2-yl)-2,5-diphenyltetrazolium bromide (MTT) proliferation assay, validated by viable cell counts.12 […]
(§3) Ligands and complexes were dissolved in DMSO to make a stock solution of 10 mM, subsequently diluted in culture media. For cell culture experiments, the DMSO's maximum concentration remained below 0.5% (v/v), with no discernible impact on proliferation.12 MTT […]
(§4) Trypan blue staining.12 Analysis of the data was executed employing MARS Data Analysis Software (BMG LabTech; version 3.30). The concentration of agents necessary to inhibit cellular proliferation by 50% (IC 50) was then calculated. […]

[2] = tested on: SK-N-MC and AsPC-1 cells; assay: MTT cellular proliferation assay, values stated over both tumor cell-types; assay type: cell-based, human; conditions: for Mean therapeutic index: average of the therapeutic indices for SK-N-MC and AsPC-1 vs MRC-5, 72 h/37 °C; for IC50: SK-N-MC and AsPC-1, after 72 h, read-out: IC50 (range over both cell-types)
Experimental: The anti-proliferative activity of Dp4e4mT relative to its complexes with Fe(III), Co(III), Ni(II), Cu(II), Zn(II), Ga(III), and Pd(II) was examined over incubation periods of 24-, 48-, and 72 h/37 °C (Table 2). These studies were performed using human SK-N-MC neuroepithelioma and AsPC-1 pancreatic adenocarcinoma cells that we have previously examined to assay other ligands.[15,28,43]
To examine the selectivity of the Dp4e4mT complexes against neoplastic versus normal mortal cells, their anti-proliferative efficacy was compared to mortal MRC-5 fibroblasts after a 72 h/37 °C incubation (Table 3). […] To further examine selectivity, an in vitro therapeutic index was calculated as per our previous investigations.[28,57,59,66,67] This parameter is derived from the ratio of the IC50 of MRC-5 cells/IC50 of SK-N-MC or AsPC-1 cells; with high ratios indicating greater selective anti-proliferative activity against neoplastic cells (Table 3). The mean therapeutic index is the average of the therapeutic indices calculated for both tumor cell-types. […] The mean therapeutic index of Dp4e4mT exceeded that obtained for clinically trialed DpC (157), as well as that of Dp44mT (112) and DFO (6). […]
as §1, §2, §3, §4

[3] = tested on: H2DCF; assay: Redox activity: H2DCF oxidation to DCF (cell-free, L-cysteine/H2O2); assay type: biochemical; conditions: for DCF fluorescence (H2DCF oxidation) after addition of CuCl2: 10 μM complex + CuCl2, pH 7.4 and pH 5; for DCF fluorescence (H2DCF oxidation) of agent alone: 10 μM, pH 7.4 and pH 5, no added CuCl2
Experimental: Redox activity in cells was examined using an established in vitro method examining 2′,7′-dichlorodihydrofluorescein (H2DCF) oxidation to fluorescent 2′,7′-dichlorofluorescein (DCF) at cytosolic pH (pH 7.4 using HBSS buffer) relative to lysosomal pH (pH 5; acetate buffer; Fig. 5).[25,26,28,42,46] To these buffers containing the complexes, L-cysteine (100 μM) was added as a reducing agent, followed by H2DCF (5 μM). Then, hydrogen peroxide (H2O2; 100 μM) was added to initiate hydroxyl radical generation. Both [Cu(DpC)Cl2] and [Cu(DpC)2] were used as positive controls due to their documented redox activity.[28,42] In contrast, the ligand, DpC, was implemented as a negative control, as it is redox inert.[28,42] As an additional control, the established Cu chelator, tetrathiomolybdate (TM), was utilized to remove Cu from the thiosemicarbazone complexes to indicate its role in their redox activity.[27,28,42] Additionally, UV-vis spectroscopy (300–700 nm) of the same solution for each complex was also performed to understand both the oxidation of H2DCF and the formation of fluorescent DCF upon excitation at 503 nm (Fig. S20A–F and S21A–F ^†). […]
ROS Generation Analysis with H 2DCF-DA
The generation of reactive oxygen species (ROS) was assessed by examining the oxidation of H2DCF.2, 8, 13, 14 Solutions containing CuCl2, TM, DpC, Dp4e4mT, [Fe(DpC)2]+, [Cu(DpC)Cl2], [Cu(DpC)2] and the Dp4e4mT complexes were prepared at a concentration of 10 µM in either HBSS (pH 7.4) or 150 mM acetate buffer (pH 5) to simulate the conditions of the cytosol and lysosome, respectively.2, 8, 14, 15 The H2DCF was prepared by deacetylation of DCFH-DA (Sigma-Aldrich) through alkaline hydrolysis using NaOH. 16
In these prepared solutions, L-cysteine (100 µM) was added as a reducing agent and then H2DCF (5 µM) added. The initiation of hydroxyl radical generation was achieved by the addition of hydrogen peroxide (H2O2; 100 µM). As a comparative benchmark, HBSS or acetate buffer containing L-cysteine, H2DCF, and H2O2, but lacking ligands or metal complexes, was employed as a control. Fluorescence measurements were carried out using a CLARIOstar Plus microplate reader (BMG LABTECH, Australia) with an excitation wavelength of 485 nm and an emission wavelength of 530 nm. 8, 14

[4] = Homo sapiens, ASPC1, AsPC-1, 24 h
[5] = Homo sapiens, ASPC1, AsPC-1, 48 h
[6] = Homo sapiens, ASPC1, AsPC-1, 72 h
[7] = listed as Dp4e4mT Co(III) complex

IC50 [1, 4] [nM] | IC50 [1, 5] [nM] | IC50 [1, 6] [nM] | IC50 ([1]; AsPC-1, 24 h) [nM] | IC50 ([1]; AsPC-1, 48 h) [nM] | IC50 ([1]; AsPC-1, 72 h) [nM] | IC50 [2] [nM] | IC50 ([1]; AsPC-1, 24 h, listed as Dp4e4mT Ga(III) complex) [nM] | IC50 ([2]; Homo sapiens) [nM] | IC50 [2, 7] [nM] | SMILES | Therapeutic index AsPC-1 [1] | Mean therapeutic index [2] | DCF fluorescence (H2DCF oxidation) after addition of CuCl2 [3] | DCF fluorescence (H2DCF oxidation) of agent alone [3] | Mean therapeutic index ([2]; listed as Dp4e4mT Pd(II) complex) | Mean therapeutic index ([2]; listed as Dp4e4mT Fe(III) complex) | Mean therapeutic index [2, 7]
 |  |  |  |  |  |  |  |  |  | CCN(C)C([S-])=NN=C(c1ccccn1)c1ccccn1.CCN(C)C([S-])=NN=C(c1ccccn1)c1ccccn1.[Zn+2] [[Zn(Dp4e4mT)2]] | 125 | 156 | markedly and significantly (p < 0.0001–0.001) increased DCF fluorescence |  |  |  | 
3780 ± 91 | 45 ± 8 | 9 ± 2 |  |  |  |  |  |  |  | CCN(C)C(=S)NN=C(c1ccccn1)c1ccccn1 [Dp4e4mT, di-2-pyridylketone-4-ethyl-4-methyl-3-thiosemicarbazone] | 120 | 210 |  | did not significantly (p > 0.05) increase DCF fluorescence |  |  | 
 |  |  | > 25000 | 1340 ± 74 | 262 ± 78 | 262 to 1570 |  |  |  | CCN(C)C([S-])=NN=C(c1ccccn1)c1ccccn1.[Cl-].[Pd+2] [[Pd(Dp4e4mT)Cl]] | 3 | 3 | approximately half |  | 3–9 |  | 
 |  |  | 1074 ± 6 | 42 ± 6 | 3 ± 1 |  |  |  |  | CCN(C)C([S-])=NN=C(c1ccccn1)c1ccccn1.[Cl-].[Cu+2] [[Cu(Dp4e4mT)Cl]] | 130 | 130 |  | greatest efficacy at increasing DCF fluorescence |  |  | 
4640 ± 71 | 42 ± 6 | 15 ± 3 |  |  |  |  |  |  |  | CN(C)C(=S)NN=C(c1ccccn1)c1ccccn1 [Dp44mT, di-2-pyridylketone 4,4-dimethyl-3-thiosemicarbazone, reference compound] | 71 | 112 |  |  |  |  | 
 |  |  | 22380 ± 58 | 1580 ± 77 | 201 ± 31 |  |  |  |  | CCN(C)C([S-])=NN=C(c1ccccn1)c1ccccn1.CCN(C)C([S-])=NN=C(c1ccccn1)c1ccccn1.[Fe+3] [[Fe(Dp4e4mT)2]^+] | 9 | 9 | markedly and significantly (p < 0.0001–0.001) increased DCF fluorescence | markedly and significantly (p < 0.0001) less redox active |  | 3–9 | 
 |  |  | 2431 ± 15 | 47 ± 6 | 5 ± 1 |  | 1730 to 2430 |  |  | CCN(C)C([S-])=NN=C(c1ccccn1)c1ccccn1.CCN(C)C([S-])=NN=C(c1ccccn1)c1ccccn1.[Ga+3] [[Ga(Dp4e4mT)2]^+] | 154 | 173 | markedly and significantly (p < 0.0001–0.001) increased DCF fluorescence |  |  |  | 
4921 ± 34 | 87 ± 34 | 18 ± 7 |  |  |  |  |  | 18 to 28 |  | CN(C(=S)NN=C(c1ccccn1)c1ccccn1)C1CCCCC1 [DpC, di-2-pyridylketone 4-cyclohexyl-4-methyl-3-thiosemicarbazone, reference compound] | 165 | 157 |  | did not significantly (p > 0.05) increase DCF fluorescence |  |  | 
 |  |  | 9522 ± 91 | 2680 ± 78 | 1570 ± 257 | 818 to 1570 |  |  | 262 to 1570 | CCN(C)C([S-])=NN=C(c1ccccn1)c1ccccn1.CCN(C)C([S-])=NN=C(c1ccccn1)c1ccccn1.[Co+3] [[Co(Dp4e4mT)2]^+] | 2 | 3 | not significantly (p > 0.05) different to CuCl2 alone |  |  |  | 3–9
 |  |  | > 25000 | 234 ± 83 | 76 ± 54 | 18 to 76 |  |  |  | CCN(C)C([S-])=NN=C(c1ccccn1)c1ccccn1.CCN(C)C([S-])=NN=C(c1ccccn1)c1ccccn1.[Ni+2] [[Ni(Dp4e4mT)2]] | 62 | 156 | markedly and significantly (p < 0.0001–0.001) increased DCF fluorescence |  |  |  | 
